Laboratory results from US12396961B2, “Compounds and compositions for intracellular delivery of agents” (ModernaTX, Inc., priority 2015, dated 2025).

Key:
[1] = Particle size and polydispersity index (Zetasizer Nano ZS); assay type: physicochemical
Description: Nanoparticle compositions may be characterized by a variety of methods. For example, microscopy (e.g., transmission electron microscopy or scanning electron microscopy) may be used to examine the morphology and size distribution of a nanoparticle composition. Dynamic light scattering or potentiometry (e.g., potentiometric titrations) may be used to measure zeta potentials. Dynamic light scattering may also be utilized to determine particle sizes. Instruments such as the Zetasizer Nano ZS (Malvern Instruments Ltd, Malvern, Worcestershire, UK) may also be used to measure multiple characteristics of a nanoparticle composition, such as particle size, polydispersity index, and zeta potential.
A Zetasizer Nano ZS (Malvern Instruments Ltd, Malvern, Worcestershire, UK) can be used to determine the particle size, the polydispersity index (PDI) and the zeta potential of the nanoparticle compositions in 1×PBS in determining particle size and 15 mM PBS in determining zeta potential.

[2] = tested on: luciferase (Luc) mRNA expression; assay: Luc expression (AUC) in CD-1 mice relative to MC3; assay type: in vivo; settings: for Lipid/MC3 AUC CD-1 mice 0.5 mpk: Table 7b, Luc expression; for Lipid/MC3 Luc CD-1 (mice): Luc expression relative to MC3, CD-1 mice
Experimental: FIG. 15 is a graph summarizing luciferase expression levels at 6 h after administration of nanoparticle compositions containing compounds of the disclosure to CD-1 mice at a dose of 0.5 mpk. Total light flux values were acquired via body luminescent imaging (BLI) 6 h after administration. In this Figure, the numbers 1-7 and 10 refer to the compositions containing Compounds 4-10 and MC3 respectively.
In contrast, hEPO expression in rats induced by administration of nanoparticle composition including compound according to one of formulae (I), (Ia1)-(Ia6), (Ib), (II), (IIa), (III), and (IIIa) was substantially lower than that measured for MC3. […] Table 7c and 7d show additional protein expressions and clearance data from compositions with various compounds disclosed herein as compared to with MC3.

[3] = tested on: LDLr mRNA / Luc expression; assay: Expression (AUC) in LDLr−/− mice relative to KL22; assay type: in vivo; settings: Table 7b
hEPO mRNA expression [4] = assay: Expression of hEPO in mice (CD-1); assay type: in vivo, CD-1 mice; settings: for Lipid/MC3 AUC: Table 7e, hEPO expression, CD-1 mice, 0.5 mpk
Description: FIG. 12 is a set of graphs illustrating hEPO expression levels in CD-1 mice dosed with compounds of the disclosure, compared to MC3. PBS is used as control. […] In graphs A-C numbers 1-14 refer to compositions containing the following: 1: Compound 73, 2: Compound 80, 3: Compound 70; 4: Compound 81; 5: Compound 69; 6: Compound 82; 7: Compound 83; 8: Compound 62; 9: Compound 84; 10: Compound 85; 11: Compound 86; 12: Compound 87; 13: MC3; 14: PBS.
FIG. 13 is a graph showing hEPO levels (pg/mL) in CD-1 mice up to −25 h after administration of a nanoparticle composition containing compounds of the disclosure, compared to a composition containing MC3. Numbers 1-13 refer to compositions containing the following: 1: Compound 73, 2: Compound 80, 3: Compound 70; 4: Compound 81; 5: Compound 69; 6: Compound 82; 7: Compound 83; 8: Compound 62; 9: Compound 84; 10: Compound 85; 11: Compound 86; 12: Compound 87; 13: MC3. […]

[5] = tested on: luciferase (Luc) mRNA expression; assay: Expression of Luc, bioluminescence (total flux) after intravenous administration to mice; assay type: in vivo; settings: for Luc expression in mice compared with MC3 (Table 7a): in words; for Total flux (Luc expression), comparison in words over the time points of the table named: mice i.v. 0.5 mg/kg, 3, 6, 24 hours
Experimental: In order to monitor how effectively various nanoparticle compositions deliver therapeutic and/or prophylactic agents to targeted cells, different nanoparticle compositions including a particular therapeutic and/or prophylactic agent (for example, a modified or naturally occurring RNA such as an mRNA) are prepared and administered to rodent populations. Mice are intravenously, intramuscularly, intraarterially, or intratumorally administered a single dose including a nanoparticle composition with a formulation such as those provided in Table 1. In some instances, mice may be made to inhale doses. Dose sizes may range from 0.001 mg/kg to 10 mg/kg, where 10 mg/kg describes a dose including 10 mg of a therapeutic and/or prophylactic agent in a nanoparticle composition for each 1 kg of body mass of the mouse. A control composition including PBS may also be employed.
Upon administration of nanoparticle compositions to mice, dose delivery profiles, dose responses, and toxicity of particular formulations and doses thereof can be measured by enzyme-linked immunosorbent assays (ELISA), bioluminescent imaging, or other methods. For nanoparticle compositions including mRNA, time courses of protein expression can also be evaluated. Samples collected from the rodents for evaluation may include blood, sera, and tissue (for example, muscle tissue from the site of an intramuscular injection and internal tissue); sample collection may involve sacrifice of the animals.
The efficacy of the nanoparticle compositions presented in Tables 1, la, 17-1, 19-1, 20-1 and 21-1 was evaluated with a bioluminescence study. Formulations were administered intravenously to mice (n=6) at a dosage of 0.5 mg/kg (mpk) and bioluminescence measured at 3, 6, and 24 hour time points. The standard MC3 formulation and a PBS control were evaluated for comparison.

hEPO mRNA expression [6] = assay: Expression of hEPO after intravenous administration to rats; assay type: in vivo; settings: rats i.v.; 3, 6, 24 hours
Experimental: PBS (phosphate buffered saline) is used as control.
Formulations were prepared according to Table 5 and included mRNA encoding hEPO.
[…] After the 48 hour time point, livers and spleens were harvested and frozen.

[7] = Table 1, DOPE 40:20:38.5:1.5, Luc mRNA

PDI [1, 7]	SMILES	Lipid/MC3 AUC CD-1 mice 0.5 mpk [2]	Lipid/KL22 AUC LDLr−/− mice 0.5 mpk, LDLr [3]	Total flux (Luc expression), comparison in words over the time points of the table named [5]	also measured
0.140	CCCCCCCCCCCCN(CCN(CCCCCCCCC)CCCCCCCCC)CC(=O)N1CCN(C(=O)CN(CCCCCCCCC)CCCCCCCCC)CC1 [Compound 5, 2-(Dinonylamino)-1-(4-(N-(2-(dinonylamino)ethyl)-N-dodecylglycyl)piperazin-1-yl)ethan-1-one]	2.62	1.86	–	–
0.160	CCCCCCCCCCCCN(CCCCCCCCCCCC)CCN(CCCCCCCCC)CC(=O)N1CCN(C(=O)CN(CCCCCCCCC)CCCCCCCCC)CC1 [Compound 6, 2-((2-(Didodecylamino)ethyl)(nonyl)amino)-1-(4-(dinonylglycyl)piperazin-1-yl)ethan-1-one]	1.72	0.37	–	–
0.130	CCCCCCCCCCCCN(CCCCCCCCCCCC)CCN(CCCCCCCCCCCC)CC(=O)N1CCN(C(=O)CN(CCCCCCCCC)CCCCCCCCC)CC1 [Compound 7, 2-((2-(Didodecylamino)ethyl)(dodecyl)amino)-1-(4-(dinonylglycyl)piperazin-1-yl)ethan-1-one]	1.51	2.46	–	–
0.110	CCCCCCCCCCCCN(CCCCCCCCCCCC)CC(=O)N1CCN(C(=O)CN(CCCCCCCCC)CCN(CCCCCCCCC)CCCCCCCCC)CC1 [Compound 8, 2-(Didodecylamino)-1-(4-(N-(2-(dinonylamino)ethyl)-N-nonylglycyl)piperazin-1-yl)ethan-1-one]	2.33	3.74	–	–
0.170	CCCCCCCCCCCCN(CCCCCCCCCCCC)CC(=O)N1CCN(C(=O)CN(CCCCCCCCCCCC)CCN(CCCCCCCCC)CCCCCCCCC)CC1 [Compound 9, 2-(Didodecylamino)-1-(4-(N-(2-(dinonylamino)ethyl)-N-dodecylglycyl)piperazin-1-yl)ethan-1-one]	0.73	0.58	–	Size (nm) ([1]; Table 1, lipid:DOPE:Chol:PEG-DMG 40:20:38.5:1.5, Luc mRNA, MC3 standard formulation): 78.0 nm
0.130	CCCCCCCCCCCCN(CCCCCCCCCCCC)CCN(CCCCCCCCC)CC(=O)N1CCN(C(=O)CN(CCCCCCCCCCCC)CCCCCCCCCCCC)CC1 [Compound 10, 2-(Didodecylamino)-1-(4-(N-(2-(didodecylamino)ethyl)-N-nonylglycyl)piperazin-1-yl)ethan-1-one]	1.14	0.71	–	–
0.096	CCCCCCCCCCCCN(CCCCCCCCCCCC)CCN(CCCCCCCCCCCC)CCN1CCN(CCN(CCCCCCCCCCCC)CCCCCC(=O)OCCCCC)CC1 [Compound 12, Pentyl 6-((2-(4-(2-((2-(didodecylamino)ethyl)(dodecyl)amino)ethyl)piperazin-1-yl)ethyl)(dodecyl)amino)hexanoate]	–	–	–	hEPO expression in mice compared with MC3 (Table 7a) (hEPO mRNA expression [4]; mice, in words): substantially higher; Lipid/MC3 Luc CD-1 (mice) [2]: 0.21; Luc expression in mice compared with MC3 (Table 7a) [5]: significantly lower
0.008	CCCCCCCCCCCCN(CCCCCCCCCCCC)CCN(CCCCCCCCCCCC)CCN1CCN(CCN(CCCCCC(=O)OCCCCC)CCCCCC(=O)OCCCCC)CC1 [Compound 14, Dipentyl 6,6′-((2-(4-(2-((2-(didodecylamino)ethyl)(dodecyl)amino)ethyl)piperazin-1-yl)ethyl)azanediyl)dihexanoate]	–	–	–	Lipid/MC3 Luc CD-1 (mice) [2]: 0.070; Luc expression in mice compared with MC3 (Table 7a) [5]: significantly lower
–	CCCCCCCCCCCCN(CCCCCCCCCCCC)CCN(CCCCCCCCCCCC)CCN1CCN(CCN(CCCCCCCCCCCC(=O)OC)CCCCCCCCCCCC(=O)OC)CC1 [Compound 16, Dimethyl 12,12′-((2-(4-(2-((2-(didodecylamino)ethyl)(dodecyl)amino)ethyl)piperazin-1-yl)ethyl)azanediyl)didodecanoate]	–	–	–	PDI ([1]; formulated with hEPO mRNA): 0.140; hEPO expression at each time point, comparison in words (Table 6) (hEPO mRNA expression [6]): lowest hEPO expression
–	CCCCC/C=C\C/C=C\CCCCCCCCN(CCO)CCCCCCCCCCCC [Compound 17-4, 2-(Dodecyl((9Z,12Z)-octadeca-9,12-dien-1-yl)amino)ethan-1-ol]	–	–	substantially higher flux than compositions including Compounds 17-2, 17-3, and 17-7	–
–	CCCCCCCC/C=C\CCCCCCCCN(CCO)CCCCCCCC/C=C\CCCCCCCC [Compound 17-8, 2-(Di((Z)-octadec-9-en-1-yl)amino)ethan-1-ol]	–	–	substantially higher flux than compositions including Compounds 17-2, 17-3, and 17-7	–
–	CCCCCCCCCCCCN(CCCCCCCCCCCC)CCN1CCNCC1 [Compound 19-2, N-Dodecyl-N-(2-(piperazin-1-yl)ethyl)dodecan-1-amine]	–	–	lowest total flux	–
–	CCCCCCCCCCCCN(CCCCCCCCCCCC)CCN1CCN(Cc2ccc(OC)cc2)CC1 [Compound 19-5, N-Dodecyl-N-(2-(4-(4-methoxybenzyl)piperazin-1-yl)ethyl)dodecan-1-amine]	–	–	next highest flux	–
–	CCCCC/C=C\C/C=C\CCCCCCCCN(CCCCCCCC/C=C\C/C=C\CCCCC)CCN1CCN(CCCCCCCCCCCC)CC1 [Compound 19-6, (9Z,12Z)—N-(2-(4-Dodecylpiperazin-1-yl)ethyl)-N-((9Z,12Z)-octadeca-9,12-dien-1-yl)octadeca-9,12-dien-1-amine]	–	–	next highest flux	–
–	CCCCCCCCCN(CCCOC(=O)CCCCC)CCC(=O)N1CCN(C(=O)CCN(CCCCCCCCC)CCN(CCCCCCCCC)CCCCCCCCC)CC1 [Compound 86, 3-((3-(4-(3-((2-(Dinonylamino)ethyl)(nonyl)amino)propanoyl)piperazin-1-yl)-3-oxopropyl)(nonyl)amino)propyl Hexanoate]	–	–	–	Lipid/MC3 AUC (hEPO mRNA expression [4]): 0.49
–	CCCCCCCCCN(CCCOC(=O)CCCCC)CCCC1CCN(C(=O)CCN(CCCCCCCCC)CCN(CCCCCCCCC)CCCCCCCCC)CC1 [Compound 87, 3-((3-(1-(3-((2-(Dinonylamino)ethyl)(nonyl)amino)propanoyl)piperidin-4-yl)propyl)(nonyl)amino)propyl hexanoate]	–	–	–	Lipid/MC3 AUC (hEPO mRNA expression [4]): 0.80
